The source of these data is PMC8151276, “An Integrated Approach toward NanoBRET Tracers for Analysis of GPCR Ligand Engagement” (Molecules, 2021).

Common to all, as to type: binding
One experiment deals with T1, DRD5 (Homo sapiens, UniProt P21918).
T1 construct: purchased Promega (in-house HiBiT-GPCR construct library, NanoBRET)
Briefly: NanoBRET screen HiBiT-DRD5 in HEK293. How it is done: (§1) Each tracer candidate was screened across the entire library of HiBiT-GPCR constructs using NanoBRET as the detection modality. As depicted in Figure 4A, the specificity of interactions was evaluated through decrease in BRET due to competitive displacement of a bound tracer by excess parental compound. Each tracer was analyzed for binding to each HiBiT-GPCR fusion in the absence and in the presence of competing parental compound. Briefly, HEK293 cells were transfected with HiBiT-GPCR constructs diluted into promoterless DNA to reduce expression and maximize translocation to the cell surface. Each tracer candidate was then screened at concentrations of 1 μM and 0.1 μM across cells expressing these fusions. Cells were treated for 1.5 h with tracer either alone or in the presence of 20 μM competing parental compound (i.e., control). BRET was measured upon addition of purified LgBiT and subsequent complementation with HiBiT genetically fused to a GPCR. The specificity of interactions was assessed through a decrease in BRET signal due to competitive displacement of the bound tracer. To further gauge the robustness of these interactions, the fold response over the control (i.e., BRETtracer/BRETcontrol) was calculated. We chose a 1.5-fold response, which translates to ≥7-fold signal over noise as the minimal threshold required to score an interaction as positive. […]. Below we highlight the screening results obtained for our exemplary fluorescent tracers based on Clozapine, Amitriptyline and AZD1283.
(§2) HiBiT-GPCR DNA constructs were diluted in 10 mM Tris pH 8 to a final concentration of 0.01 μg/μL, arrayed in 96-well plates and stored at −20 °C. For transfection, HEK293 cells were suspended in Opti-MEM (without phenol red) supplemented with 2% fetal bovine serum (Seradigm) and 100 units/mL penicillin–streptomycin (Gibco) at a final concentration of 220,000 cells/mL and dispensed into white 96-well plates at 90 μL/well. Subsequent transfections and screens were carried using an Agilent Bravo Automated Liquid Handling Platform. First, the 96-well HiBiT DNA arrays were diluted 25-fold in Opti-MEM (without serum or phenol red) to a final concentration of 0.0004 μg/μL and 20 μL of the diluted DNAs were transferred into new 96-well plates. Next, promoterless carrier DNA (1 μg/μL) was diluted 25-fold (0.04 μg/μL) and then dispensed into the diluted arrays at 20 μL/well. Following brief mixing, Viafect transfection reagent (Promega) diluted 16-fold into Opti-MEM was dispensed into the plates at 40 μL/well. After mixing by pipetting, plates were incubated for 10 min on the pipetting station deck. The DNA-transfection reagent complexes were then added to plates containing cells. To facilitate the screen, 10 μL of DNA-transfection reagent complexes were added in duplicates to the top 4 and bottom 4 rows, resulting in two identical 48-well arrays per plate. Plates with transfected cells were incubated for 18–20 h at 37 °C/5% CO2. A screen of each tracer across the entire library using two different concentrations requires duplicate plates of transfected cells. Depending on the number of tracers being screened, transfections can be scaled up using the same ratios. The next day, for each tracer, four 20× screening solutions in tracer dilution buffer (Promega) were prepared: two duplicates at final concentration of 20 μM and two duplicates at a final concentration of 2 μM. A competing unmodified compound was added to one of each duplicate at a final concentration of 400 μM. The four resulting solutions were diluted 4-fold in Opti-MEM without serum or phenol red to generate 5× solutions (5 µM and 0.5 µM tracer +/− 100 μM competing compound). To screen the library, a BioTek MultiFlo FX liquid dispenser was used to dispense 22.5 µL of tracer solution to the top 4 rows and 22.5 µL tracer + competing compound solution to the 4 bottom rows. Plates were briefly mixed on an orbital shaker and incubated for 1.5 h at room temperature. […]

The next experiment deals with T2, FZD7 (Homo sapiens, UniProt O75084).
T2 construct: purchased Promega (in-house HiBiT-GPCR construct library, NanoBRET)
Briefly: NanoBRET screen HiBiT-FZD7 in HEK293. How it is done:
as §1, §2
(In general: In BRET a luciferase serves as donor, and the signal depends on an acceptor being close.)

The target in a further experiment is T3, FSHR (Homo sapiens, UniProt P23945).
T3 construct: purchased Promega (in-house HiBiT-GPCR construct library, NanoBRET)
T3 sequence (P23945 18-695): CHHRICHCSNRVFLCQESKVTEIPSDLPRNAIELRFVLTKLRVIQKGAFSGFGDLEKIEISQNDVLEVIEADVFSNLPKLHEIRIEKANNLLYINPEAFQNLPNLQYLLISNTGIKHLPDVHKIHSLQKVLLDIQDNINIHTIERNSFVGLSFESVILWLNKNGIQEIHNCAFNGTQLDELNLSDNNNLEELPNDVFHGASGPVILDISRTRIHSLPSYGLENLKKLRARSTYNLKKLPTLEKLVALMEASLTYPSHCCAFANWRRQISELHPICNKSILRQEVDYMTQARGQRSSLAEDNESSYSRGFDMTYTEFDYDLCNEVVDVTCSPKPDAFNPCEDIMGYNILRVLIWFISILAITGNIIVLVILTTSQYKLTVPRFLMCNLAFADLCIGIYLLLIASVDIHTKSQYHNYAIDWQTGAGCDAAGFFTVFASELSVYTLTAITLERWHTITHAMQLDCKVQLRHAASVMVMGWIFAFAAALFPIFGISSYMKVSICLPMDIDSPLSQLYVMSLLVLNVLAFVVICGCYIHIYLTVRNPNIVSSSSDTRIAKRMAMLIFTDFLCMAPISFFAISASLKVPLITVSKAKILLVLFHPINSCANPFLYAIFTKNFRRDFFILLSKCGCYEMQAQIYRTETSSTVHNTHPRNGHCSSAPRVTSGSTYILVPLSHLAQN
Briefly: NanoBRET screen HiBiT-FSHR in HEK293. How it is done: as §1, §2

The target in another experiment is T4, RXFP4 (Homo sapiens, UniProt Q8TDU9).
T4 construct: purchased Promega (in-house HiBiT-GPCR construct library, NanoBRET)
T4 sequence (Q8TDU9 whole entry): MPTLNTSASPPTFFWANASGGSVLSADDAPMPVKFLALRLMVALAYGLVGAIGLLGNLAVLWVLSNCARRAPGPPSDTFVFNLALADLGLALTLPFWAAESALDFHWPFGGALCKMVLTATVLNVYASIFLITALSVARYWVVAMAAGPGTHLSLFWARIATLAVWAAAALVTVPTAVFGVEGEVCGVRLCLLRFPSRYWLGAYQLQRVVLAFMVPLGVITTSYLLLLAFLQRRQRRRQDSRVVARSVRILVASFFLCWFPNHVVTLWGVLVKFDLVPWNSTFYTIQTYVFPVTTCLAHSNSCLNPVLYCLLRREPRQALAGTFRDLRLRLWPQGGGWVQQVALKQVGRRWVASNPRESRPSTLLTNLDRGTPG
Briefly: NanoBRET screen HiBiT-RXFP4 in HEK293. Here is the method:
as §1, §2

Setting [1] is: tracer at 0.1μM, listed as amitriptyline-b-2-NB590.
Where [2] appears, read: tracer at 1μM, listed as amitriptyline-b-2-NB590.

T1 sequence (P21918 whole entry): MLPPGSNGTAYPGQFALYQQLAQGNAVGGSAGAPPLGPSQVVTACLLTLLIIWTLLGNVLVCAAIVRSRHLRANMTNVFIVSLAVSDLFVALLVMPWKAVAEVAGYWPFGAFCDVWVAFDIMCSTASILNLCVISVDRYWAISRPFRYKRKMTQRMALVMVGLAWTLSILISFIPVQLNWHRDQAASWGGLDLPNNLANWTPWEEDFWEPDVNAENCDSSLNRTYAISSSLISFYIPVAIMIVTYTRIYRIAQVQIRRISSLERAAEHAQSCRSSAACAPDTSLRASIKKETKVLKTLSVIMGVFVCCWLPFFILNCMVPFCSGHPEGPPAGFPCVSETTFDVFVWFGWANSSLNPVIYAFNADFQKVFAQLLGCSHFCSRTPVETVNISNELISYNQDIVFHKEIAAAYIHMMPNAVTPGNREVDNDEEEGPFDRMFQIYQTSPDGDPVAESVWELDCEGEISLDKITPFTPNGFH

Consider `CN(C)CCC=C1c2ccccc2CCc2ccc(C(=O)NCCNC(=O)CCOCCOCCOCCOCCNC(=O)CCc3ccc4n3[B-](F)(F)[N+]3=C(c5ccc[nH]5)C=CC3=C4)cc21` [Amitriptyline-b-2-NB590], for which the “NanoBRET Fold Response” value on DRD5 (setting [1]) is reported as 1.08; on DRD5 (setting [2]), 1.42; on FZD7 (setting [1]), 1.16; on FZD7 (setting [2]), 1.16; at FSHR (setting [1]), 1.13; on FSHR (setting [2]), 0.96. For the same molecule, the results for the “NanoBRET Fold Response” value on RXFP4 (setting [1]) and on RXFP4 (setting [2]) were 1.07 and 0.89, respectively.
Consider `O=C(CCOCCOCCOCCOCCNC(=O)CCc1ccc2n1[B-](F)(F)[N+]1=C(c3ccc[nH]3)C=CC1=C2)NCCCN1CCN(C2=Nc3cc(Cl)ccc3Nc3ccccc32)CC1` [Clozapine-a-2-NB590], for which the “NanoBRET Fold Response” value at DRD5 (DRD5, 0.1μM tracer) stood at 2.41; at DRD5 (DRD5, 1μM tracer), 2.86; at FZD7 (FZD7, 0.1μM tracer), 1.00; on FZD7 (FZD7, 1μM tracer) it was 0.98; on FSHR (FSHR, 0.1μM tracer) it was 0.99; at FSHR (FSHR, 1μM tracer), 1.32. In addition, the “NanoBRET Fold Response” value is given as 1.10 at RXFP4 (RXFP4, 0.1μM tracer) and 1.10 at RXFP4 (RXFP4, 1μM tracer).
Consider `CN1CCN(C2=Nc3cc(Cl)ccc3Nc3ccc(CNC(=O)CCOCCOCCOCCOCCNC(=O)CCc4ccc5n4[B-](F)(F)[N+]4=C(c6ccc[nH]6)C=CC4=C5)cc32)CC1` [Clozapine-b-2-NB590], for which the “NanoBRET Fold Response” value stood at 1.01 on DRD5 (DRD5, 0.1μM tracer); 1.83 at DRD5 (DRD5, 1μM tracer); 1.01 on FZD7 (FZD7, 0.1μM tracer); 0.98 on FZD7 (FZD7, 1μM tracer); 1.01 at FSHR (FSHR, 0.1μM tracer); 1.05 at FSHR (FSHR, 1μM tracer). Further, the “NanoBRET Fold Response” value worked out at 0.97 at RXFP4 (RXFP4, 0.1μM tracer) and 1.01 on RXFP4 (RXFP4, 1μM tracer).
Take `Cc1nc2n(c(=O)c1CCN1CCC(c3noc4cc(F)ccc34)CC1)CCCC2OC(=O)NCCOCCOCCOCCOCCNC(=O)CCc1ccc2n1[B-](F)(F)[N+]1=C(c3ccc[nH]3)C=CC1=C2` (centres unmarked) [Risperidone-2-NB590]: the “NanoBRET Fold Response” value at DRD5 (DRD5, tracer 0.1μM) is 1.92; on DRD5 (DRD5, tracer 1μM) it was 2.44; on FZD7 (FZD7, tracer 0.1μM) it was 0.98; at FZD7 (FZD7, tracer 1μM), 1.04; at FSHR (FSHR, tracer 0.1μM), 0.95; at FSHR (FSHR, tracer 1μM), 1.23. Besides, the “NanoBRET Fold Response” value is on record as 0.96 on RXFP4 (RXFP4, tracer 0.1μM) and 1.10 on RXFP4 (RXFP4, tracer 1μM).
